Measured values as given in patent US9957265B2, “N-(2-cyano heterocyclyl) pyrazolo pyridones as janus kinase inhibitors” (Merck Sharp & Dohme Corp., priority 2013, dated 2018).
Where two headings read alike, the source gives them in different places.

Key:
[1] = target: JAK1 (Homo sapiens (Human), UniProt P23458); experiment: Jak Biochemical HTRF Assay (JAK1); conditions: recombinant GST-tagged catalytic domain, [ATP] 31.8 μM, unit not given (compound concentrations tested given in nM)
Source text: Jak Biochemical HTRF Assay Protocol
Subsequent reagent additions employed an Agilent Bravo.

[2] = target: JAK2 (Homo sapiens (Human), UniProt O60674); experiment: Jak Biochemical HTRF Assay (JAK2)
Chain of JAK2 (O60674 849-1124): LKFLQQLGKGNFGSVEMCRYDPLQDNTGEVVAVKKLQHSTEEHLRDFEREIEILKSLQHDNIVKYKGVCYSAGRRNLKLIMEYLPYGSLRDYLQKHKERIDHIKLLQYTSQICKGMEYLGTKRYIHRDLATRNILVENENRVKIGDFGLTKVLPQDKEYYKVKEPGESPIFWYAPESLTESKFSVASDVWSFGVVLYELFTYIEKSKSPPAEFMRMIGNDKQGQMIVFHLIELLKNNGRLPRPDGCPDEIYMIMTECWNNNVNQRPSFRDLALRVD
Method: The ability of compounds to inhibit the activity of JAK1, JAK2, JAK3, and TYK2 was measured using a recombinant purified GST-tagged catalytic domain for each enzyme (Invitrogen JAK1 #M4290, JAK2 #M4290, JAK3 #M4290, TYK2 #M4290) in an HTRF format biochemical assay. […] Subsequent reagent additions employed an Agilent Bravo. […] After equilibration, 2 μL of 10×ATP in 1× assay buffer was added to initiate the kinase reaction and the plates were shaken and then incubated at room temperature for 120 minutes. […] After normalization to untreated controls, the percent inhibition of the HTRF signal at each compound concentration was calculated. The plot of percent inhibition versus the log of compound concentration was fit with a 4-parameter dose response equation to calculate IC50 values.
Final reaction conditions were:

[3] = JAK2 IC50, recombinant GST-tagged catalytic domain, [ATP] 8.5 μM, unit not given (compound concentrations tested given in nM)
[4] = read-out: JAK2 IC50, recombinant GST-tagged catalytic domain, [ATP] 8.5 μM, unit not given (compound concentrations tested given in nM)

Chain of JAK1 (P23458 875-1153): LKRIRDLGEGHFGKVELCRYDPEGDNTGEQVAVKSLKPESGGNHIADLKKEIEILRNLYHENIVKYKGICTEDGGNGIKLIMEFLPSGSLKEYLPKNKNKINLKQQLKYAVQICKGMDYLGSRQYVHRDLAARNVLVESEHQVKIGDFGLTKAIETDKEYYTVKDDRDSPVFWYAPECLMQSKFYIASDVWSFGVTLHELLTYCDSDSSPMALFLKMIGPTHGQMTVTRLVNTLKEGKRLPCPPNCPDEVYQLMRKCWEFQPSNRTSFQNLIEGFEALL

Row | SMILES | IC50 [1] [nM] | IC50 [2, 3] [nM] | IC50 [2, 4] [nM]
1 | CC(C)(C)S(=O)(=O)c1ccc(Nc2nn([C@@H]3CCOCC[C@H]3C#N)c3cc[nH]c(=O)c23)cc1 (single isomer, unassigned) [Example 1-27, (4R,5R or 4S,5S)-5-(3-{[4-(tert-butylsulfonyl)phenyl]amino}-4-oxo-4,5-dihydro-1H-pyrazolo[4,3-c]pyridin-1-yl)oxepane-4-carbonitrile] | 22.4 |  | 
2 | CC(C)(C)S(=O)(=O)c1ccc(Nc2nn([C@H]3CCOCC[C@@H]3C#N)c3cc[nH]c(=O)c23)cc1 (single isomer, unassigned) [Example 1-26, (4S,5S or 4R,5R)-5-(3-{[4-(tert-butylsulfonyl)phenyl]amino}-4-oxo-4,5-dihydro-1H-pyrazolo[4,3-c]pyridin-1-yl)oxepane-4-carbonitrile] | 0.71 |  | 
3 | N#C[C@H]1CCOCC1n1nc(Nc2ccc(C(O)(c3ccccn3)C(F)(F)F)cc2)c2c(=O)[nH]ccc21 (single isomer, unassigned) [Example 1-97, (3R,4S)-3-(4-oxo-3-((4-((S or R)-2,2,2-trifluoro-1-hydroxy-1-(pyridin-2-yl)ethyl)phenyl)amino)-4,5-dihydro-1H-pyrazolo[4,3-c]pyridin-1-yl)tetrahydro-2H-pyran-4-carbonitrile] | 0.14 | 0.18 | 
4 | CC(C)(C)NS(=O)(=O)c1ccc(Nc2nn([C@H]3COCC[C@@H]3C#N)c3cc[nH]c(=O)c23)cc1 [Example 1-10, N-(tert-butyl)-4-((1-((3R,4S)-4-cyanotetrahydro-2H-pyran-3-yl)-4-oxo-4,5-dihydro-1H-pyrazolo[4,3-c]pyridin-3-yl)amino)benzenesulfonamide] | 0.08 |  | 0.21
5 | N#C[C@H]1CCOCC1n1nc(Nc2ccc(C3(C(F)(F)F)CCNC3)cc2)c2c(=O)[nH]ccc21 (single isomer, unassigned) [Example 1-99, (3R,4S)-3-(4-oxo-3-((4-((S or R)-3-(trifluoromethyl)pyrrolidin-3-yl)phenyl)amino)-4,5-dihydro-1H-pyrazolo[4,3-c]pyridin-1-yl)tetrahydro-2H-pyran-4-carbonitrile] | 0.07 |  | 
6 | CC1CN(S(=O)(=O)c2ccc(Nc3nn([C@H]4COCC[C@@H]4C#N)c4cc[nH]c(=O)c34)cc2)C1 [Example 1-70, (3R,4S)-3-[3-({4-[(3-methylazetidin-1-yl)sulfonyl]phenyl}amino)-4-oxo-4,5-dihydro-1H-pyrazolo[4,3-c]pyridin-1-yl]tetrahydro-2H-pyran-4-carbonitrile] | 0.15 |  | 
7 | N#C[C@H]1CCOCC1n1nc(Nc2ccc(C3(C(F)(F)F)CCNC3)cc2)c2c(=O)[nH]ccc21 (single isomer, unassigned) [Example 1-98, (3R,4S)-3-(4-oxo-3-((4-((S or R)-3-(trifluoromethyl)pyrrolidin-3-yl)phenyl)amino)-4,5-dihydro-1H-pyrazolo[4,3-c]pyridin-1-yl)tetrahydro-2H-pyran-4-carbonitrile] | 0.06 |  | 
8 | CC1(C)CC2(c3ccc(Nc4nn([C@H]5COCC[C@@H]5C#N)c5cc[nH]c(=O)c45)cc3)CCC1C(=O)O2 (stereo partly drawn) [Example 1-20, (3R,4S)-3-(3-{[4-(5,5-dimethyl-3-oxo-2-oxabicyclo[2.2.2]oct-1-yl)phenyl]amino}-4-oxo-4,5-dihydro-1H-pyrazolo[4,3-c]pyridin-1-yl)tetrahydro-2H-pyran-4-carbonitrile] | 0.07 |  | 
9 | CC(C)(C)S(=O)(=O)c1ccc(Nc2nn([C@@H]3CCOCC[C@@H]3C#N)c3cc[nH]c(=O)c23)cc1 (single isomer, unassigned) [Example 1-29, (4S,5R or 4R,5S)-5-(3-{[4-(tert-butylsulfonyl)phenyl]amino}-4-oxo-4,5-dihydro-1H-pyrazolo[4,3-c]pyridin-1-yl)oxepane-4-carbonitrile] | 4.38 |  | 
10 | CC(C)(N)c1ccc(Nc2nn([C@H]3COCC[C@@H]3C#N)c3cc[nH]c(=O)c23)cc1 [Example 1-60, (3R,4S)-3-(3-{[4-(1-amino-1-methylethyl)phenyl]amino}-4-oxo-4,5-dihydro-1H-pyrazolo[4,3-c]pyridin-1-yl)tetrahydro-2H-pyran-4-carbonitrile] | 0.21 |  | 
11 | CC(C)(C)S(=O)(=O)c1ccc(Nc2nn([C@H]3CCOCC[C@H]3C#N)c3cc[nH]c(=O)c23)cc1 (single isomer, unassigned) [Example 1-28, (4R,5S or 4S,5R)-5-(3-{[4-(tert-butylsulfonyl)phenyl]amino}-4-oxo-4,5-dihydro-1H-pyrazolo[4,3-c]pyridin-1-yl)oxepane-4-carbonitrile] | 5.34 |  | 
12 | CC1(C)CC2(c3ccc(Nc4nn([C@H]5COCC[C@@H]5C#N)c5cc[nH]c(=O)c45)cc3)CCC1C(=O)O2 (stereo partly drawn) [Example 1-21, (3R,4S)-3-(3-{[4-(5,5-dimethyl-3-oxo-2-oxabicyclo[2.2.2]oct-1-yl)phenyl]amino}-4-oxo-4,5-dihydro-1H-pyrazolo[4,3-c]pyridin-1-yl)tetrahydro-2H-pyran-4-carbonitrile] | 0.08 |  | 
13 | CC(C)C(C)(C)S(=O)(=O)c1ccc(Nc2nn([C@H]3COCC[C@@H]3C#N)c3cc[nH]c(=O)c23)cc1 [Example 1-66, (3R,4S)-3-[4-oxo-3-({4-[(1,1,2-trimethylpropyl)sulfonyl]phenyl}amino)-4,5-dihydro-1H-pyrazolo[4,3-c]pyridin-1-yl]tetrahydro-2H-pyran-4-carbonitrile] | 0.07 |  | 

Results, then the molecule that gave them:

Row | IC50 [1] [nM] | IC50 [2, 3] [nM] | IC50 [2, 4] [nM] | SMILES
14 | 0.15 | 0.23 |  | CC1CCCN1C(c1ccc(Nc2nn([C@H]3COCC[C@@H]3C#N)c3cc[nH]c(=O)c23)cc1)C(F)(F)F (single isomer, unassigned) [Example 1-86, (3R,4S)-3-{4-oxo-3-[(4-{(1R or 1S)-2,2,2-trifluoro-1-[(2S or 2R)-2-methylpyrrolidin-1-yl]ethyl}phenyl)amino]-4,5-dihydro-1H-pyrazolo[4,3-c]pyridin-1-yl}tetrahydro-2H-pyran-4-carbonitrile]
15 | 0.07 | 0.14 |  | CCNC(c1ccc(Nc2nn([C@H]3COCC[C@@H]3C#N)c3cc[nH]c(=O)c23)cc1)C(F)(F)F (single isomer, unassigned) [Example 1-54, (3R,4S)-3-[3-({4-[(1R or 1S)-1-(ethylamino)-2,2,2-trifluoroethyl]phenyl}amino)-4-oxo-4,5-dihydro-1H-pyrazolo[4,3-c]pyridin-1-yl]tetrahydro-2H-pyran-4-carbonitrile]
16 | 0.65 | 1.73 |  | CC1(C)CC1NC(c1ccc(Nc2nn([C@H]3COCC[C@@H]3C#N)c3cc[nH]c(=O)c23)cc1)C(F)(F)F (single isomer, unassigned) [Example 1-48, (3R,4S)-3-{3-[(4S or 4R-{1S or 1R-[(2,2-dimethylcyclopropyl)amino]-2,2,2-trifluoroethyl}phenyl)amino]-4-oxo-4,5-dihydro-1H-pyrazolo[4,3-c]pyridin-1-yl}tetrahydro-2H-pyran-4-carbonitrile]
17 | 0.08 |  | 0.15 | N#C[C@H]1CCOC[C@@H]1n1nc(Nc2ccc(C(NC3CC3)C(F)(F)F)cc2)c2c(=O)[nH]ccc21 (single isomer, unassigned) [Example 1-81, (3R,4S)-3-[3-({4-[(1R or 1S)-1-(cyclopropylamino)-2,2,2-trifluoroethyl]phenyl}amino)-4-oxo-4,5-dihydro-1H-pyrazolo[4,3-c]pyridin-1-yl]tetrahydro-2H-pyran-4-carbonitrile]
18 | 0.13 | 0.19 |  | N#C[C@H]1CCOC[C@@H]1n1nc(Nc2ccc(C(NC3CCC3)C(F)(F)F)cc2)c2c(=O)[nH]ccc21 (single isomer, unassigned) [Example 1-92, (3R,4S)-3-[3-({4-[(1S or 1R)-1-(cyclobutylamino)-2,2,2-trifluoroethyl]phenyl}amino)-4-oxo-4,5-dihydro-1H-pyrazolo[4,3-c]pyridin-1-yl]tetrahydro-2H-pyran-4-carbonitrile]
19 | 0.09 |  |  | N#C[C@H]1CCOC[C@@H]1n1nc(Nc2ccc(C(N3CCC3)C(F)(F)F)cc2)c2c(=O)[nH]ccc21 (single isomer, unassigned) [Example 1-57, (3R,4S)-3-[3-({4-[(1S or 1R)-1-azetidin-1-yl-2,2,2-trifluoroethyl]phenyl}amino)-4-oxo-4,5-dihydro-1H-pyrazolo[4,3-c]pyridin-1-yl]tetrahydro-2H-pyran-4-carbonitrile]
20 | 0.08 |  |  | CC(C)(C)NC(c1ccc(Nc2nn([C@H]3COCC[C@@H]3C#N)c3cc[nH]c(=O)c23)cc1)C(F)(F)F (single isomer, unassigned) [Example 1-50, (3R,4S)-3-[3-({4-[(1R or 1S)-1-(tert-butylamino)-2,2,2-trifluoroethyl]phenyl}amino)-4-oxo-4,5-dihydro-1H-pyrazolo[4,3-c]pyridine-1-yl]tetrahydro-2H-pyran-4-carbonitrile]
21 | 0.08 |  |  | CC(C)(C)NC(c1ccc(Nc2nn([C@H]3COCC[C@@H]3C#N)c3cc[nH]c(=O)c23)cc1)C(F)(F)F (single isomer, unassigned) [Example 1-51, (3R,4S)-3-[3-[3-({4-[(1S or 1R)-1-(tert-butylamino)-2,2,2-trifluoroethyl]phenyl}amino)-4-oxo-4,5-dihydro-1H-pyrazolo[4,3-c]pyridin-1-yl]tetrahydro-2H-pyran-4-carbonitrile]
22 | 0.06 |  |  | N#C[C@H]1CCOC[C@@H]1n1nc(Nc2ccc(C(N3CCC3)C(F)(F)F)cc2)c2c(=O)[nH]ccc21 (single isomer, unassigned) [Example 1-56, (3R,4S)-3-[3-({4-[(1R or 1S)-1-azetidin-1-yl-2,2,2-trifluoroethyl]phenyl}amino)-4-oxo-4,5-dihydro-1H-pyrazolo[4,3-c]pyridin-1-yl]tetrahydro-2H-pyran-4-carbonitrile]
